Source: ChEMBL document CHEMBL1201862, “PubChem BioAssay data set” (2004)
Calls of active or inactive are those of the source.

How the values were obtained:
CHO-K1 = assay: (§1) Counterscreen for antagonists of the orexin 1 receptor (OX1R; HCRTR1): Homogeneous time resolved fluorescence (HTRF)-based cell-based dose response assay to identify antagonists of the parental CHO-K1 cell line. [Related pubchem assays (depositor defined):AID434989, AID435008, AID463079, AID485270, AID492963, AID492964, AID492965, AID493232, AID504699, AID504701]; format: functional; settings: Cricetulus griseus
[1] = as §1, with “Fluorescence-based” for “Homogeneous time resolved fluorescence (HTRF)-based”, “cell-based high throughput” for “cell-based”, “CHO” for “CHO-K1”; format: functional
[2] = molecular target: T1, Orexin/Hypocretin receptor type 1 (Homo sapiens, UniProt O43613); assay: Homogeneous Time Resolved Fluorescence (HTRF)-based cell-based high throughput dose response assay for antagonists of the orexin 1 receptor (OX1R; HCRTR1). [Related pubchem assays (depositor defined):AID434989, AID435008, AID463079, AID485270, AID492963, AID492964, AID492965, AID493232, AID504717, AID504718]; format: functional
[3] = molecular target: T1, Orexin/Hypocretin receptor type 1; assay: Fluorescence-based cell-based high throughput dose response assay for antagonists of the orexin 1 receptor (OX1R; HCRTR1). [Related pubchem assays (depositor defined):AID434989, AID435008, AID463079, AID485270, AID492963, AID492964, AID492965, AID493232, AID504717, AID504718]; format: functional
Orexin receptor type 2 [4] = molecular target: T2, Orexin receptor type 2 (Homo sapiens, UniProt O43614); assay: Counterscreen assay for antagonists of the orexin 1 receptor (OX1R; HCRTR1): Fluorescence-based cell-based dose response assay for antagonists of the orexin 2 receptor (OX2R; HCRTR2), run by assay provider.; format: functional
Orexin receptor type 2 [5] = molecular target: T2, Orexin receptor type 2; assay: Counterscreen assay for antagonists of the orexin 1 receptor (OX1R; HCRTR1): Homogeneous Time Resolved Fluorescence (HTRF)-based cell-based dose response assay for antagonists of the orexin 2 receptor (OX2R; HCRTR2), run by assay provider.; format: functional
Cytochrome P450 2C9 = Cytochrome P450 2C9 (Homo sapiens, UniProt P11712)
[6] = Vero cell cytotoxicity, cytotoxicity control for M. tuberculosis inhibitor project, purified and synthesized samples, set 8 (AID 602431); format: functional; settings: Mycobacterium tuberculosis
[7] = HepG2 cell cytotoxicity, cytotoxicity control, set 6 (AID 602432); format: functional; settings: Mycobacterium tuberculosis
[8] = THP-1 cell cytotoxicity, cytotoxicity control, set 6 (AID 602433); format: functional; settings: Mycobacterium tuberculosis
Beta-galactosidase = Beta-galactosidase (Escherichia coli, UniProt Q8VNN2); assay: beta-galactosidase enzyme inhibitors and activators, dose response, artefact control for CCR6 antagonist project, biochemical, E. coli enzyme, set 3 (AID 504712); format: functional
CHO = assay: cytotoxicity in TLR9-MyD88 CHO cells, dose response, cytotoxicity control for TLR9-MyD88 binding inhibitor project, cell-based, luminescence (AID 588339); format: functional, hamster; settings: Cricetulus griseus;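 note: CHO cells stably coexpressing TLR9 and MyD88 fusions from primary screen; compound exposure lasted 48 hours before viability readout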
[9] = molecular target: Heat shock protein HSP 90-alpha (Homo sapiens, UniProt P07900); format: functional, organism-based
Beta Lactamase [10] = molecular target: T3, Beta Lactamase (Pseudomonas aeruginosa, UniProt Q932Y6); assay: beta-lactamase reporter inhibitor potency, dose response, artefact control for TLR9-MyD88 binding inhibitor project, BLA reporter cells, FRET fluorescence (AID 588341); format: cell-based;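 note: cell based assay in CHO-K1 cells stably expressing beta-lactamase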
[11] = molecular target: T4, Polyadenylate-binding protein 1 (Homo sapiens, UniProt P11940); assay: PABP1 MLLE–PAM2 interaction inhibitors, dose response, miRNA deadenylation inhibitor project, biochemical, fluorescence polarization, Cy5-PAM2 peptide, secondary (AID 602260); format: functional; settings: read-out: IC50_Mean
[12] = Shn3 3'UTR reporter inhibitors, dose response, cell-based, Clone20 osteoblasts, firefly luciferase, cherry-picked (AID 624132); format: functional;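 note: firefly luciferase luminescence from reporter carrying the Shn3 3'UTR in osteoblasts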
[13] = molecular target: T4, Polyadenylate-binding protein 1; assay: PABP1 MLLE–PAM2 binding inhibitor potency, dose response, biochemical, fluorescence polarization, FITC-PAM2 peptide (AID 602259); format: functional; settings: read-out: IC50_Mean
[14] = HepG2 cell cytotoxicity, dose response, cytotoxicity control for Shn3 inhibitor project, CellTiter-Glo, cherry-picked (AID 624134); format: functional, cell-based
[15] = control 3'UTR Renilla luciferase suppression, dose response, counter-screen for Shn3 inhibitor project, cell-based, Clone20-Shn3RL, cherry-picked (AID 624133); format: functional
[16] = Fluorescence-based cell-based high throughput dose response assay for inhibitors of the interaction of nucleotide-binding oligomerization domain containing 2 (NOD2) and the receptor-interacting serine-threonine kinase 2 (RIPK2).; format: functional; settings: Homo sapiens
Beta Lactamase [17] = molecular target: T3, Beta Lactamase; assay: beta-lactamase reporter inhibitor potency, dose response, artefact control for NOD2-RIPK2 interaction inhibitor project, BLA reporter cells, FRET fluorescence (AID 651552); format: functional, cell-based

T4 sequence (P11940 whole entry): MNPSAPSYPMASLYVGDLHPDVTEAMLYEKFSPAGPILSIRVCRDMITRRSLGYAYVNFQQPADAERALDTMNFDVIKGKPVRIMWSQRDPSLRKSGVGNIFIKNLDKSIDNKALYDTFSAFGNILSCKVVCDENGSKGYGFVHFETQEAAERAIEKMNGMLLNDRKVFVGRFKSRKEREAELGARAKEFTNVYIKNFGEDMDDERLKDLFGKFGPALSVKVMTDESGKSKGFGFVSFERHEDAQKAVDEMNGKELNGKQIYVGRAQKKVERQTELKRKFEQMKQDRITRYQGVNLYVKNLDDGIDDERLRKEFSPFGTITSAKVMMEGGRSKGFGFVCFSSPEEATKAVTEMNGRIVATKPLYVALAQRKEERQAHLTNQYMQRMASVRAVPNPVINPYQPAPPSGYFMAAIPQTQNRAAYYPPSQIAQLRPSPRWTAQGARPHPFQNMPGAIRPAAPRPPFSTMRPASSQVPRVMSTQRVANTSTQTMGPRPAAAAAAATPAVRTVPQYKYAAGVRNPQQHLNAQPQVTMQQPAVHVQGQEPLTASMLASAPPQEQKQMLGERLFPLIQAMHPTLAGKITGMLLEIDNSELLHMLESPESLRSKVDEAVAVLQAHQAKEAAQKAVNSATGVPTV
T1 sequence (O43613 whole entry): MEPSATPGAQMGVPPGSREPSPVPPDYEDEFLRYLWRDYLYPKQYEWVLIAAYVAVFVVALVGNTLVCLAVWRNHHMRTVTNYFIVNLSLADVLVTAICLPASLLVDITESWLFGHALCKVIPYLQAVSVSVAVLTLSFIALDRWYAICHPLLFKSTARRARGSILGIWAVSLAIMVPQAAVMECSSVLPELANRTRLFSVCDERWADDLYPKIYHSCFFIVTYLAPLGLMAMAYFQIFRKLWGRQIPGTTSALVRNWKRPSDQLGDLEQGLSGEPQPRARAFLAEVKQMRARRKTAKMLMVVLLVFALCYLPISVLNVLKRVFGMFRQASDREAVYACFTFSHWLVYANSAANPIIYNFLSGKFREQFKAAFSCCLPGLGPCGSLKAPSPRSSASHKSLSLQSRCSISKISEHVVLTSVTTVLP
T3 sequence (Q932Y6 whole entry): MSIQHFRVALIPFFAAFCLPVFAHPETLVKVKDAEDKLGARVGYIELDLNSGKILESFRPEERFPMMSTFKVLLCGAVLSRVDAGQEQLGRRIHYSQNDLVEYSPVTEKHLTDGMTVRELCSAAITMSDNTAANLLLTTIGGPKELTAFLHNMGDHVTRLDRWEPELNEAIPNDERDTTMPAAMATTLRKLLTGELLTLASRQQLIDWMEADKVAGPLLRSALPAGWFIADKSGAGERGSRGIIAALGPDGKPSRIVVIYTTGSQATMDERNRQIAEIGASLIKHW
T2 sequence (O43614 whole entry): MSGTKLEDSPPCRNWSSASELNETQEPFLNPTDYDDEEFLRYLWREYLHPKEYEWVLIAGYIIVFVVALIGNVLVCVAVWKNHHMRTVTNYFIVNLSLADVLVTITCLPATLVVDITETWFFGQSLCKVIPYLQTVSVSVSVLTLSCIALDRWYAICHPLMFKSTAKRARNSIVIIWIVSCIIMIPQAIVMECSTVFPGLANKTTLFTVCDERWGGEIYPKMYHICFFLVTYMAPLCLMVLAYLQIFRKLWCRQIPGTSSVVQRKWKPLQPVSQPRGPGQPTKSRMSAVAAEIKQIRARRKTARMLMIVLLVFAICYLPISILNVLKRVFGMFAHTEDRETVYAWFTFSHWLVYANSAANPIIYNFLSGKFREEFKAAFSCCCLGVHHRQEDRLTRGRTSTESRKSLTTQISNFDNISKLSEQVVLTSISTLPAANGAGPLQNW
Cytochrome P450 2C9, sequence (P11712 whole entry): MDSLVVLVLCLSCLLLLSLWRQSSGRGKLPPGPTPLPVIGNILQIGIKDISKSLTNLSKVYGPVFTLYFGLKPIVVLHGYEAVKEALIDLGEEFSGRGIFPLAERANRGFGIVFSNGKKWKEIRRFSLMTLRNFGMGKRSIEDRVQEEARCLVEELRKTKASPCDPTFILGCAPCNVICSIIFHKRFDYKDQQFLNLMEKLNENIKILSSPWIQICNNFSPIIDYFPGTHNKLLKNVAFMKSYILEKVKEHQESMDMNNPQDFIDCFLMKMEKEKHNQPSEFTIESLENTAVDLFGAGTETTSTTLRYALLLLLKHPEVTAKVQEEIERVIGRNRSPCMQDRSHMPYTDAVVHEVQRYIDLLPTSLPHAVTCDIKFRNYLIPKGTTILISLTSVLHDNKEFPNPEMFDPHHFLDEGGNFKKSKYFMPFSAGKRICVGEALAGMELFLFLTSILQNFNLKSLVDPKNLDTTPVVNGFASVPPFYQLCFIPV
Beta-galactosidase, sequence (Q8VNN2 whole entry, the tested form may be a part): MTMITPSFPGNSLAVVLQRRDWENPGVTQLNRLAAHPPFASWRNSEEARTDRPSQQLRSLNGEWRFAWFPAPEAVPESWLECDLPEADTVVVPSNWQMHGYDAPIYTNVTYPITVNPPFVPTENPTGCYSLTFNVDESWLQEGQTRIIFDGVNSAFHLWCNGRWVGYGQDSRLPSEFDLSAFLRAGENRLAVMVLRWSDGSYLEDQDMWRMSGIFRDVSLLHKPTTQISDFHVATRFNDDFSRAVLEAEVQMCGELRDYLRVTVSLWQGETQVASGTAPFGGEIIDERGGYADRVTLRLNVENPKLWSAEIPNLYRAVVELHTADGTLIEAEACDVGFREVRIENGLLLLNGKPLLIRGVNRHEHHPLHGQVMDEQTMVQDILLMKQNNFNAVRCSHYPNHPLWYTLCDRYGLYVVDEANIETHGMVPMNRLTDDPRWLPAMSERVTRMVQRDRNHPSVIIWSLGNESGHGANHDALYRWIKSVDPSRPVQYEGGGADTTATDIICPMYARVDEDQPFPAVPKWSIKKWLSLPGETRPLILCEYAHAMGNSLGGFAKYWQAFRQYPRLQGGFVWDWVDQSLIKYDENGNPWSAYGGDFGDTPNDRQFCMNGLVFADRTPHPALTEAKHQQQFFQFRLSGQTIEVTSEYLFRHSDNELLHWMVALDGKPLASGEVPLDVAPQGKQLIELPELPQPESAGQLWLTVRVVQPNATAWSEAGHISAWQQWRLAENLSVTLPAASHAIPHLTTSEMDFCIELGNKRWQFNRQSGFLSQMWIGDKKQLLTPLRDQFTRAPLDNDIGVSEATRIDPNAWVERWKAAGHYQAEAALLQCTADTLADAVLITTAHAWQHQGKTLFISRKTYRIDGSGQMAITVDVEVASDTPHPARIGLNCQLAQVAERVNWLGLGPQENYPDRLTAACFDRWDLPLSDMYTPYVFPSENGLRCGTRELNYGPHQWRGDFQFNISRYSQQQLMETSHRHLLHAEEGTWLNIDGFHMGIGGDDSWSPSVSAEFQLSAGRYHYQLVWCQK

Compound: CCn1c(SCC(=O)c2ccc3ccccc3c2)nnc1-c1cccs1
- IC50 (CHO-K1): > 66.2 µM (inactive)
- IC50 [1]: > 49.8 µM (inactive)
- IC50 [2]: 6.66 µM (active)
- IC50 [3]: 17.6 µM (inactive)
- IC50 (Orexin receptor type 2 [4]): > 88.8 µM (inactive)
- IC50 (Orexin receptor type 2 [5]): > 50 µM (inactive)
- AC50 (Cytochrome P450 2C9): 17.8 µM (inconclusive)

Compound: COc1ccc(N2CCN(C(=O)c3ccc(CNC(=O)NCc4ccc(Cl)cc4)cc3)CC2)cc1
- CC50 [6]: 29.4 µM (active)
- CC50 [7]: > 50 µM (active)
- CC50 [8]: > 100 µM (inconclusive)

Compound: O=C(c1ccccc1)c1ccccc1N1C(=O)C=CC1=O
- IC50 (Beta-galactosidase): > 66.6 µM (inactive)
- IC50 (CHO): 2.78 µM (active)
- AC50 [9]: 2.21 µM (active)
- IC50 (Beta Lactamase [10]): 15.3 µM (inactive)
- IC50 [11]: > 66 µM (inactive)
- AC50 [12]: 16.7 µM (active)
- IC50 [13]: > 66 µM (inactive)
- AC50 [14]: 24.6 µM (active)
- AC50 [15]: 12.5 µM (active)
- IC50 [16]: 1.99 µM (active)
- IC50 (Beta Lactamase [17]): 15.5 µM (inactive)
